Patent US20250326708A1, “LONG-ACTING SPLEEN-TARGETING CATIONIC LIPID COMPOUND COMPRISING BENZENE RING STRUCTURE, COMPOSITION COMPRISING SAME, AND USE THEREOF” (Beijing Youcarekechuang Pharmaceutical Technology Co., Ltd., priority 2024, published 2025)
Where “and” joins values, the source holds several entries; their conditions need not be identical. Identical values can stand only once.

Key:
[1] = test system: female BALB/C mice; assay: Expression of delivered mRNA in mice in vivo (IVIS in vivo imaging); conditions: 10 μg Fluc-mRNA via tail vein
Description: LNP preparations containing 10 μg of Fluc-mRNA were injected via the tail vein into female BALB/C mice (4 to 6 weeks old, weighing 17 to 19 g). At specified time points after administration (6 h, 24 h, 48 h, and 7 d), the mice were intraperitoneally injected with fluorescent imaging substrates and allowed to move freely for 5 minutes. The average radiation intensity (corresponding to fluorescence intensity) of proteins expressed by the mRNA delivered by the LNP preparations in the mice in vivo was then detected using the IVIS Spectrum small-animal in vivo imaging system.

[2] = Particle size and polydispersity index (PDI) of lipid nanoparticles, dynamic light scattering; assay type: physicochemical; conditions: LNP preparation with the named cationic lipid; 90° scattering angle, 25° C
From the text: (§1) The cationic lipids listed in Table 2 were each mixed with DSPC (AVT (Shanghai) Pharmaceutical Technology Co., Ltd.), cholesterol (AVT (Shanghai) Pharmaceutical Technology Co., Ltd.), and DMG-PEG2000 in a molar ratio of 49:10:39.5:1.5 and dissolved in ethanol to prepare ethanol lipid solutions. Using the ethanol injection method, the ethanol lipid solutions were quickly added to a citrate buffer (pH between 4 and 5), and vortexed for 30 seconds for later use. eGFP-mRNA (purchased from Shanghai BioHub Biotechnology Co., Ltd.), Fluc-mRNA (purchased from Shanghai BioHub Biotechnology Co., Ltd.), or Cy5 fluorescently labeled Leqvio (purchased from Sangon Biotech (Shanghai) Co., Ltd.) was diluted in a citrate buffer (pH between 4 and 5) to obtain an mRNA aqueous solution. A certain volume of the lipid solution and the mRNA aqueous solution were mixed to prepare liposomes at a total lipid-to-mRNA weight ratio of 15:1. The mixtures were sonicated at 25° C. for 15 minutes (ultrasonic frequency: 40 kHz, ultrasonic power: 800 W). The resulting liposomes were diluted 10-fold with PBS, followed by ultrafiltration using a 300 kDa ultrafiltration tube to remove ethanol. After adjusting the volume with PBS, LNP preparations encapsulating eGFP-mRNA or Fluc-mRNA were obtained, using cationic lipids, DSPC, cholesterol, and DMG-PEG2000 at a molar ratio of 49:10:39.5:1.5.
The particle size and polydispersity index (PDI) were measured using dynamic light scattering with a Malvern laser diffraction particle size analyzer.
10 μL of liposome solution was diluted to 1 mL with RNase-free deionized water and added to the sample cell. Each sample was measured three times. The measurement conditions were as follows: 90° scattering angle, 25° C.

[3] = test system: female BALB/C mice; assay: Expression of delivered mRNA in different organs of mice (organ imaging); assay type: in vivo; conditions: for Expression level of mRNA in the spleen, times that of SM-102 / Expression level of mRNA in the spleen, times that of YK-501 / Expression level of mRNA in the spleen, times that of YK-506: 6 h; for Expression level of mRNA in the spleen, times that of SM-102: vs SM-102; for Expression level of mRNA in the spleen, times that of YK-501: vs YK-501; for Expression level of mRNA in the spleen, times that of YK-506: vs YK-506
Description: LNP preparations containing 5 μg of Fluc-mRNA were subcutaneously injected into female BALB/C mice (4 to 6 weeks old, weighing 17 to 19 g). At specified time points after administration (6 h), the mice were intraperitoneally injected with fluorescent imaging substrates and allowed to move freely for 5 minutes. The average radiation intensity (corresponding to fluorescence intensity) of proteins expressed by the mRNA delivered by the LNP preparations in the mice in vivo was then detected using the IVIS Spectrum small-animal in vivo imaging system. After sampling, the mice were killed by cervical dislocation and dissected, and the internal organs: heart, liver, spleen, lung, kidney, and lymph of mice were accurately isolated. The average radiation intensity (corresponding to fluorescence intensity) of proteins expressed by the mRNA delivered by the LNP preparations in various organs of mice was then detected using the IVIS Spectrum small-animal in vivo imaging system.

[4] = test system: 293T cells; assay: Fluorescence detection of Fluc-mRNA (transfection efficiency) of LNP preparations; assay type: cell-based; conditions: Fluc-mRNA LNP; for Cellular transfection efficiency, times that of HHMA: vs HHMA; for Cellular transfection efficiency, times that of I-1: vs I-1; for Cellular transfection efficiency, times that of Lipofectamine 3000: vs Lipofectamine 3000; for Cellular transfection efficiency, times that of MC3: vs MC3; for Cellular transfection efficiency, times that of SM-102: vs SM-102; for Cellular transfection efficiency, times that of YK-501: vs YK-501; for Cellular transfection efficiency, times that of YK-506: vs YK-506; for Cellular transfection efficiency, times that of compound 7: vs compound 7
Description: (§2) Cell recovery and passage: 293T cells were recovered and cultured in culture dishes. The cells were passaged until the required number of cells was obtained.
(§3) Seeding plates: The cells in culture dishes were digested and counted, then seeded in a 96-well plate at 10,000 cells per well and seeded in a 12-well plate at 150,000 cells per well. The cells were cultured overnight until cell adhesion.
as §1
(§4) Cell recovery and passage: The method was the same as described in Example 3.
(§5) Seeding plates: The method was the same as described in Example 3.
LNP preparations containing 0.3 μg of Fluc-mRNA (with the vector components of the LNP preparations of cationic lipids, DSPC, cholesterol, and DMG-PEG2000 in a molar ratio of 49:10:39.5:1.5, where the cationic lipids are those listed in Table 1) were added to the cell culture medium in a 96-well plate. After 24 hours of continued culture, the corresponding reagents were added according to the instructions in the Gaussia Luciferase Assay Kit. Fluorescence intensity in each well was detected using the IVIS fluorescence detection system. The transfection efficiency of LNP preparations prepared with a series of cationic lipid compounds designed in the present disclosure, as well as cationic lipids from the prior art, including SM-102, HHMA, MC3, compound 7, and I-1, is shown in Table 4.

[5] = test system: 293T cells; assay: Cell viability assay (CCK-8) with LNP preparations of Fluc-mRNA; assay type: cell-based; conditions: for Cell viability: LNP with 1.5 μg Fluc-mRNA, 24 hours, CCK-8
Description: as §2, §3, §1, §4, §5
LNP preparations containing 1.5 μg of Fluc-mRNA (with the vector components of the LNP preparations of cationic lipids, DSPC, cholesterol, and DMG-PEG2000 in a molar ratio of 49:10:39.5:1.5, where the cationic lipids are those listed in Table 1) were added to the cell culture medium in a 96-well plate. After 24 hours of continued culture, 10 μL of CCK-8 solution was added to each well, and the culture plate was incubated in an incubator for 1 hour.

[6] = 6 hours after 5 μg Fluc-mRNA subcutaneously

Row | Structure (SMILES) | Average radiation intensity, in vivo imaging ([1]; 6 h) | Average radiation intensity, in vivo imaging ([1]; 24 h) | Average radiation intensity, in vivo imaging ([1]; 48 h) | Average radiation intensity, in vivo imaging ([1]; 7 d) | PDI [2] [%] | Particle size [2] [nm] | Average radiation intensity of mouse organs: Heart [3, 6] | Average radiation intensity of mouse organs: Kidney [3, 6] | Average radiation intensity of mouse organs: Lung [3, 6] | Average radiation intensity of mouse organs: Lymph [3, 6] | Average radiation intensity of mouse organs: Spleen [3, 6] | Expression level of mRNA in the spleen, times that of SM-102 [3] [times] | Expression level of mRNA in the spleen, times that of YK-501 [3] [times] | Expression level of mRNA in the spleen, times that of YK-506 [3] [times] | Cellular transfection efficiency, times that of HHMA [4] [times] | Cellular transfection efficiency, times that of I-1 [4] [times] | Cellular transfection efficiency, times that of Lipofectamine 3000 [4] [times] | Cellular transfection efficiency, times that of MC3 [4] [times] | Cellular transfection efficiency, times that of SM-102 [4] [times] | Cellular transfection efficiency, times that of YK-501 [4] [times] | other results
1 | CCCCCCCCCCOC(=O)CCCN(CCCCCC(=O)OCCC(CCCCCC)CCCCCC)CCNC(CO)(CO)CCc1ccc(CCCCCCCC)cc1 [YK-909, 3-hexylnonyl 6-((4-(decyloxy)-4-oxobutyl) (2-((1-hydroxy-2-(hydroxymethyl)-4-(4-octylphenyl)butan-2-yl)amino)ethyl)amino) hexanoate] | 12924543 | 1322432 | 576433 | 87433 | 11.9 | 132 | 0 | 0 | 0 | 0 | 204435 | 8.00 | 14.37 | 2.87 | 6.71 | 33.44 | 8.05 | 71.44 | 4.75 | 146.62 | Average radiation intensity of mouse organs: Liver [3, 6]: 9131; Cellular transfection efficiency, times that of YK-506 [4]: 10.36 times; Cellular transfection efficiency, times that of YK-906 ([4]; vs YK-906): 246 times and 246.15 times; Cellular transfection efficiency, times that of compound 7 [4]: 26.33 times; Cell viability [5]: 92%; Cell viability higher than that of YK-906 ([5]; difference vs YK-906): 29%
2 | CCCCCCCCCCC(CCCCCCCC)COC(=O)CCCCCNC(CO)(CO)CCc1ccc(CCCCCCCC)cc1 (stereo not shown) [YK-912, 2-octyldodecyl 6-((1-hydroxy-2-(hydroxymethyl)-4-(4-octylphenyl)butan-2-yl)amino) hexanoate] | 7543664 | 932533 | 354363 | 56756 | 9.5 | 123 | 0 | 0 | 0 | 0 | 175366 | 6.86 | 12.33 | 2.46 | 5.65 | 28.16 | 6.77 | 60.16 | 4.00 | 123.46 | Cellular transfection efficiency, times that of YK-506 [4]: 8.73 times; Cellular transfection efficiency, times that of YK-901 ([4]; vs YK-901): 131 times and 131.47 times; Cellular transfection efficiency, times that of YK-902 ([4]; vs YK-902): 18.35 times; Cellular transfection efficiency, times that of YK-903 ([4]; vs YK-903): 228 times and 228.30 times; Cellular transfection efficiency, times that of YK-904 ([4]; vs YK-904): 45.65 times; Cellular transfection efficiency, times that of YK-905 ([4]; vs YK-905): 78.83 times; Cellular transfection efficiency, times that of YK-911 ([4]; vs YK-911): 4.39 times; Cellular transfection efficiency, times that of compound 7 [4]: 22.17 times; Cell viability [5]: 87%; Cell viability higher than that of YK-901 ([5]; difference vs YK-901): 29%; Cell viability higher than that of YK-902 ([5]; difference vs YK-902): 51%; Cell viability higher than that of YK-903 ([5]; difference vs YK-903): 40%; Cell viability higher than that of YK-904 ([5]; difference vs YK-904): 35%; Cell viability higher than that of YK-905 ([5]; difference vs YK-905): 36%; Cell viability higher than that of YK-911 ([5]; difference vs YK-911): 25%
